Reference: patent US20090005253A1, “Double Hybrid System Based on Gene Silencing by Transcriptional Interference” (AVENTIS PHARMA S.A., priority 2004, published 2009)

Tested on: Fe65/App interaction
Test: growth restoration test on solid medium, yRB49 (rY2H UI interference system) expressing the Fe65/App interaction
Assay type: cell-based
Conditions: medium free of histidine, 1 mM 3-AT; 1 μl at 0.125%, 0.25%, 0.5% or 1% at center of dish; 30° C., 48 hours
Method: The strain containing the UI transcriptional interference system (yRB49) and cotransformed with the plasmids pRB34 and pRB35 (Fe65/App interaction) was plated out onto medium without histidine and containing 1 mM of 3-AT. […] The dishes were incubated at 30° C. for 48 hours.
The strain containing the UI transcriptional interference system (yRB49) was cotransformed with the pairs of plasmids pRB34 and pRB35 (Fe65/App interaction) or pDBT-mdm2 and pVP16-p53Nt (mdm2/p53 interaction). The strain containing the plasmids pRB34 and pRB35 (Fe65/App interaction) was plated out onto 5 dishes of medium without histidine supplemented with 1 mM of 3-AT (top row); the strain containing the plasmids pDBT-mdm2 and pVP16-p53Nt (mdm2/p53 interaction) was similarly plated out onto 5 dishes of medium without histidine supplemented with 20 mM of 3-AT (bottom row).
A control dish was prepared for each interaction by depositing 1 μl of histidine at 0.125% w/v at the center of this dish. A different molecule, A, B, C or D, was deposited onto each of the other 4 dishes, according to the following scheme: in the upper left corner, 1 μl of the product at a concentration of 0.1 mM is deposited; in the upper right corner, 1 μl of the same product at a concentration of 1 mM is deposited; at the center, 1 μl of this product at 10 mM is deposited. […]

## N[C@@H](Cc1c[nH]cn1)C(=O)O [histidine]
  restoration of growth around the deposit by nutrient (FIG. 8C): capable of restoring the growth
